In article PMC3175485 (2011):

Target: PDE4D3 (Homo sapiens, UniProt Q08499)
Assay: biochemical

PDE4D3, sequence (Q08499 1-673 isoform Q08499-2): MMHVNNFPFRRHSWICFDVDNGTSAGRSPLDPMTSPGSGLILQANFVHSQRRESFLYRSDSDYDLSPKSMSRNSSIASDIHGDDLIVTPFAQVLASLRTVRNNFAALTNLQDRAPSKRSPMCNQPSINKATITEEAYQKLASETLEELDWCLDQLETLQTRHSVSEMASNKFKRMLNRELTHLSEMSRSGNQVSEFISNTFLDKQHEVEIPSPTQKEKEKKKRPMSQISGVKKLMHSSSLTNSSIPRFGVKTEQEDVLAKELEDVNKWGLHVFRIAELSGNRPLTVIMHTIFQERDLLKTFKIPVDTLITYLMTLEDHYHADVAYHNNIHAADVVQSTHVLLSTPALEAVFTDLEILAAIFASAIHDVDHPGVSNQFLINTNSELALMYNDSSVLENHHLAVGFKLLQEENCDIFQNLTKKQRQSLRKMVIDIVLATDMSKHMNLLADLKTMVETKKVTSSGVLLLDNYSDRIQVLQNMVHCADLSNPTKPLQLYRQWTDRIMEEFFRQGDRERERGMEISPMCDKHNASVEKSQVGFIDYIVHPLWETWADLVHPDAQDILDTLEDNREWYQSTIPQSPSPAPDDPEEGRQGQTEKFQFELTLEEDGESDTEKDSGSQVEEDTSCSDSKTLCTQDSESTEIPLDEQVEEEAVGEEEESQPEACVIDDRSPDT

IC50: 3.6 ± 0.5 µM
Structure (SMILES): COc1ccc(-c2cc(C(F)F)nn2-c2ccc(S(N)(=O)=O)cc2)cc1F [deracoxib]
